{"source": "patent US20220096529A1", "about": "“2-HYDROXYPROPYL-BETA-CYCLODEXTRIN (HPBETACD) FOR USE IN THE TREATMENT OF BREAST CANCER” (UNIVERSITY OF THE WITWATERSRAND, JOHANNESBURG, priority 2019, published 2022)", "key": {"[1]": {"test_system": "HEK-293 cells", "format": "cell-based, human", "description": "(§1) Cells were cultured in appropriate medium supplemented with 10% FCS, penicillin (100 U/ml), and streptomycin (100 μg/ml) (Gibco) at 5% CO2 in a 37° C. incubator.\n(§2) Four different cell lines were used MCF7 (ER+). MDA-MB-231 (ER−), MRC-5 (Lung Fibroblasts) and HEK-293 (Embryonic kidney). MRC-5 and/or HEK-293 were used as control cell lines depending on availability.\n(§3) In order to determine whether HPβCD has the ability to induce cancer cell death a primary screening using an MTT assay was performed. Three different time points 24 hrs."}, "[2]": {"test_system": "MRC-5 cells", "format": "cell-based, human", "conditions": "for concentration for 50% growth inhibition in normal cells compared to cancerous cells: MRC-5 and HEK-293 vs cancerous cells", "description": "as §1, §2, §3"}, "[3]": {"test_system": "HEK-293 cells", "test": "Cell-APOPercentage apoptosis assay", "format": "cell-based, human", "conditions": "24 hrs", "description": "(§4) APOPercentage assays gives a measure of overall apoptosis in the cell. Apoptosis is an early event and therefore just one time point (24 hrs) was selected and tested on four cell lines MCF7, MDA-MB-231, MRC-5 & HEK-293 cells. 10 μM Plumbagin was used a positive control as opposed to 40 μM from MTT because higher concentrations of plumbagin was way too toxic for the cells and to capture the early activity, optimal dosage was required. To confirm the growth inhibition obtained from the MTT assay was actually due to apoptosis, a Cell-APOPercentage Apoptosis assay was performed according to known methods."}, "[4]": {"test_system": "MCF7 cells", "test": "Cell-APOPercentage apoptosis assay", "format": "cell-based, human", "conditions": "MCF7, 10 mM HPβCD, 24 hrs", "description": "as §4"}, "[5]": {"test_system": "MDA-MB-231 cells", "test": "Cell-APOPercentage apoptosis assay", "format": "cell-based, human", "conditions": "24 hrs", "description": "as §4"}, "[6]": {"test_system": "MRC-5 cells", "test": "Cell-APOPercentage apoptosis assay", "format": "cell-based, human", "conditions": "24 hrs", "description": "as §4"}, "[7]": {"test_system": "HEK-293 cells", "test": "Caspase 3/7 assay", "format": "cell-based, human", "conditions": "HEK-293, 10 mM HPβCD, 24 hrs", "description": "(§5) The final step in apoptosis following the intrinsic pathway is the activation of executioner caspases like caspase 3 and caspase 7 […]. Therefore, to confirm that cell death was due to the mitochondrial mediated pathway of apoptosis a Caspase 3/7 assay was conducted. Caspases are activated in response to a myriad of cellular death stimuli and they dismantle the cell. Caspase 3 and caspase 7 contribute to the majority of proteolytic cleavage occurring in apoptosis. As a final step to confirm and validate apoptosis via the mitochondrial intrinsic pathway, the Caspase 3/7 assay was conducted on three cell lines: MCF7, MDA-MB-231 & HEK-293. HPβCD and positive (40 μM PL) were treated for 24 hrs. The percentage of dead/apoptotic cells are clearly indicated in specific corners of each quadrants in the above plots."}, "[8]": {"test_system": "MCF7 cells", "test": "Caspase 3/7 assay", "format": "cell-based, human", "conditions": "MCF7, 10 mM HPβCD", "description": "as §5"}, "[9]": {"test_system": "MDA-MB-231 cells", "test": "Caspase 3/7 assay", "format": "cell-based, human", "conditions": "MDA-MB-231, 10 mM HPβCD, 24 hrs", "description": "as §5"}, "[10]": {"test_system": "MDA-MB-231 cells", "test": "Filipin cholesterol staining", "format": "cell-based, human", "description": "To further validate cholesterol depletion as observed from the cholesterol assay above a Filipin based cholesterol staining was conducted. MCF7. MDA-MB-231 cells were used. HEK-293 cells could not be used due to unavailability. HPβCD and the positive (5 mM MBCD) were treated for 24 hrs. Like PL, MBCD is also a well know cholesterol depletor.\nFluorescence microscopy has been a robust tool for investigating the intracellular transport of proteins. Filipin specifically binds to cholesterol and can give an overall quantification and has been more recently been clinically used in the diagnosis of Type C Niemann-Pick disease."}, "[11]": {"test_system": "SREBP-1 in MCF7 cells", "test": "Western blotting for SREBP-1", "format": "cell-based, human", "conditions": "MCF7, 10 mM HPβCD, 24 hrs", "description": "(§6) In order to delve in to more detailed mechanisms of cholesterol depletion a western blotting analysis was conducted for SREBP-1 protein, which is a known transcription factor involved in cholesterol homeostasis. Lysates from MCF7, MDA-MB-231 and MRC-5 cells were used. 10 mM HPβCD was treated for 24 hrs. SREBPs are key elements responsible for the gene expression of vital enzymes involved in fatty acid synthesis which includes SREBP 1 and SREBP 2. […] In order to investigate this characteristic feature of SREBPs a western blot analysis was conducted to see if HPβCD treatment does alter SREBP levels."}, "[12]": {"test_system": "SREBP-1 in MDA-MB-231 cells", "test": "Western blotting for SREBP-1", "format": "cell-based, human", "conditions": "MDA-MB-231, 10 mM HPβCD, 24 hrs", "description": "as §6"}, "[13]": {"test_system": "SREBP-1 in MRC-5 cells", "test": "Western blotting for SREBP-1", "format": "cell-based, human", "conditions": "MRC-5, 10 mM HPβCD, 24 hrs", "description": "as §6"}, "[14]": {"test_system": "MCF7 cells", "test": "RT2 Profiler PCR Array Human Breast cancer", "format": "cell-based", "excerpt": "(§7) PCR (polymerase chain reaction) arrays were run to identify gene expression changes in cancer cells after treatment with HPβCD. The differentially expressed genes along with their significance for cancer, some genes were selected for further drug-protein interaction studies."}, "[15]": {"test_system": "MDA-MB-231 cells", "test": "RT2 Profiler PCR Array Human Breast cancer", "format": "cell-based", "excerpt": "as §7"}, "[16]": {"test_system": "MCF7 cells", "test": "BODIPY lipid droplet staining", "format": "cell-based, human", "description": "Lipid droplets store cholesterol and HPβCD was able to reduce accumulation and storage of cholesterol in cancer cells (see FIG. 52). […] (A) is untreated, (B) is positive and (C) is treated. […] Lipid droplets store cholesterol and HPβCD was able to reduce accumulation and storage of cholesterol in cancer cells."}, "[17]": {"test_system": "MDA-MB-231 cells", "test": "Alexa Fluor lipid raft staining", "format": "cell-based, human"}, "[18]": {"test_system": "MCF7 cells", "test": "Alexa Fluor lipid raft staining", "format": "cell-based, human", "description": "(B) is positive and (C) is treated."}}, "note": "Where two headings read alike, the source gives them in different places."}
{"substance": "2-hydroxypropyl-β-cyclodextrin [HPβCD]", "values": [{"measurement": "IC50", "setting": "[1]; HEK-293, 24 hrs", "result": 22.8, "unit": "mM"}, {"measurement": "IC50", "setting": "[1]; HEK-293, 48 hrs", "result": 26.5, "unit": "mM"}, {"measurement": "IC50", "setting": "[1]; HEK-293, 72 hrs", "result": 50.3, "unit": "mM"}, {"measurement": "growth inhibition", "setting": "[1]; HEK-293, till 10 mM HPβCD, 24 hrs and 48 hrs", "result": "absolutely zero growth inhibition"}, {"measurement": "IC50", "setting": "[2]; MRC-5, 24 hrs", "result": 20.7, "unit": "mM"}, {"measurement": "IC50", "setting": "[2]; MRC-5, 48 hrs", "result": 19.9, "unit": "mM"}, {"measurement": "IC50", "setting": "[2]; MRC-5, 72 hrs", "result": 41.7, "unit": "mM"}, {"measurement": "growth inhibition", "setting": "[2]; MRC-5, till 10 mM HPβCD, 24 hrs and 48 hrs", "result": "absolutely zero growth inhibition"}, {"measurement": "concentration for 50% growth inhibition in normal cells compared to cancerous cells", "setting": "[2]; 24 hrs", "result": "almost double"}, {"measurement": "concentration for 50% growth inhibition in normal cells compared to cancerous cells", "setting": "[2]; 72 hrs", "result": "almost five times"}, {"measurement": "cell death (apoptosis)", "setting": "[3]; HEK-293, 20 mM HPβCD", "result": "~15", "unit": "%"}, {"measurement": "cell death (apoptosis)", "setting": "[3]; HEK-293, 50 mM HPβCD", "result": "~18", "unit": "%"}, {"measurement": "cell death (apoptosis)", "setting": "[3]; HEK-293, till 10 mM HPβCD", "result": "almost zero percentage cell death"}, {"measurement": "cell death (apoptosis)", "setting": "[4]", "result": "around 45%"}, {"measurement": "cell death (apoptosis)", "setting": "[5]; MDA-MB-231, 10 mM HPβCD", "result": "around 40%"}, {"measurement": "maximum cell death (apoptosis)", "setting": "[5]; MDA-MB-231, 50 mM HPβCD", "result": "~70", "unit": "%"}, {"measurement": "cell death (apoptosis)", "setting": "[6]; MRC-5, 20 mM HPβCD", "result": "~15", "unit": "%"}, {"measurement": "cell death (apoptosis)", "setting": "[6]; MRC-5, 50 mM HPβCD", "result": "~18", "unit": "%"}, {"measurement": "cell death (apoptosis)", "setting": "[6]; MRC-5, till 10 mM HPβCD", "result": "almost zero percentage cell death"}, {"measurement": "Total Live (caspase 3/7)", "setting": "[7]", "result": 66.75, "unit": "%"}, {"measurement": "total apoptosis compared to untreated", "setting": "[8]", "result": "almost two times more"}, {"measurement": "Total Apoptotic (caspase 3/7)", "setting": "[8]; 24 hrs", "result": 12.5, "unit": "%"}, {"measurement": "Total Apoptotic (caspase 3/7)", "setting": "[9]", "result": 48.75, "unit": "%"}, {"measurement": "Filipin fluorescence compared to untreated", "setting": "[10]; MDA-MB-231, 10 mM HPβCD, 24 hrs, ImageJ", "result": "six times less fluorescence"}, {"measurement": "cholesterol (Filipin staining) in treated vs untreated cells", "setting": "[10]; MDA-MB-231, FIG. 46", "result": "decreased cholesterol"}, {"measurement": "SREBP-1 protein level compared to untreated lysate", "setting": "[11]", "result": "about five times less activity of SREBP-1"}, {"measurement": "SREBP-1 protein level compared to untreated lysate", "setting": "[12]", "result": "about two and a half times less activity of SREBP-1"}, {"measurement": "SREBP-1 activity compared to untreated lysate", "setting": "[13]", "result": "remained equal"}, {"measurement": "ADAM23 gene expression", "setting": "[14]", "result": "downregulated by many folds"}, {"measurement": "CTSD gene expression", "setting": "[14]", "result": "significantly downregulated"}, {"measurement": "ADAM23 gene expression", "setting": "[15]", "result": "upregulated"}, {"measurement": "Akt1 gene expression", "setting": "[15]", "result": "upregulated"}, {"measurement": "CTSD gene expression", "setting": "[15]", "result": "upregulated"}, {"measurement": "GATA3 gene expression", "setting": "[15]", "result": "downregulated"}, {"measurement": "SFRP1 gene expression", "setting": "[15]", "result": "upregulated"}, {"measurement": "lipid droplets (BODIPY) in treated vs untreated cells", "setting": "[16]", "result": "decrease in lipid droplets"}, {"measurement": "lipid rafts (ALEXA FLUOR) in treated vs untreated cells", "setting": "[17]", "result": "decrease in lipid rafts"}, {"measurement": "lipid rafts (ALEXA FLUOR) in treated vs untreated cells", "setting": "[18]", "result": "decrease in lipid rafts"}]}
